System: NTS gene
Assay: NTS transcript RT-PCR in HBEC after hormonal treatment
Assay type: cell-based, human
Settings: 1 μM ICI 182780 added concomitantly to 10 nM estradiol, 48 h
Method: A) Left, one μg of total RNA from HBEC or whole gland were reverse-transcribed and a PCR experiment specific for NTS was performed. Right, one μg of total RNA from HBEC cells (control, treated with 10 nM estradiol (E2) with or without 1 μM ICI 182780) was reverse-transcribed. A PCR experiment was performed using specific primers for NTS and GAPDH.
The protocols for total RNA extraction, reverse-transcription reaction (RT), and PCR are documented in Souaze et al (Souaze F, Rostene W, Forgez P (1997) J. Biol. Chem. 272:10087-10094). RT was performed on 1 μg of total RNA using a specific NTSR1 primer (5′-[…]-3′ SEQ ID NO:3) or 50 pmol of oligo dT and oligo dN. The PCR amplification was performed on a 1:5 v/v of the RT reaction using 25 pmol of each primer 5′-[…]-3′ SEQ ID NO:4 and 5′-[…]-3′ SEQ ID NO:5 for NTSR1, and 5′-[…]-3′ SEQ ID NO:6 and 5′-[…]-3′ SEQ ID NO:7 for NTS, and 1 unit of Taq polymerase (Applied Biosystems, Courtaboeuf, France). The amplification profile consisted of denaturation at 94° C. for 30 s, annealing at 57° C. for 45 s, and extension at 72° C. for 45 s. The PCR cycle were preceded by denaturation at 95° C. for 15 min and were followed by a final extension at 72° C. for 7 min.
HBEC were synchronized for 40 h in Ham F10 phenol red free medium containing 20 μM lovastatin. Synchronization was stopped by adding 2 mM mevalonate to the hormone-containing medium. […]

Compound: C[C@]12CC[C@@H]3c4ccc(O)cc4C[C@@H](CCCCCCCCC[S+]([O-])CCCC(F)(F)C(F)(F)F)[C@H]3[C@@H]1CC[C@@H]2O (stereo partly shown) [ICI 182780]
- effect on the estradiol-induced enhancement of NTS transcripts: abolished

Source: patent publication US8586043B2, “Methods for treating breast cancer with inhibitors of neurotensin activation of NTSR1” (INSERM ( Institut National de la Sante et de la Recherche …, priority 2009, dated 2013)
